Test [1] concerns the target T1, PRMT5 (Homo sapiens, UniProt O14744).
T1 construct: purchased Viva (custom protein)
Put plainly: PRMT5 biochemical IC50 assay with SAM as cofactor. To be noted: PRMT5, SAM as cofactor; read-out: SAM IC50.

In test [2] the target is T1, PRMT5. Briefly: PRMT5 biochemical IC50 assay with no cofactor. The note with it: PRMT5, no cofactor; read-out: No Cofactor/rel IC50. The source says: Table 1 indicates IC50 values (μM) against PRMT5 for exemplary compounds in the presence of SAM as cofactor, with no cofactor, and with MTA as cofactor, respectively (columns 4-6). […] Ki values can be calculated from the IC50 values as described in the Examples section. As detailed in the Examples section, for the assay performed in the presence of SAM, IC50=Ki×1.5 (Ki=IC50/1.5).

For test [3], the target named is T1, PRMT5. Put plainly: PRMT5 biochemical IC50 assay with MTA as cofactor. The note with it: PRMT5, MTA as cofactor; read-out: MTA IC50.
Test [4] concerns HAP1 MTAP-intact cell line. Briefly: SDMA in-cell western assay, HAP1 MTAP-intact. It counts as cell-based. The note with it: Homo sapiens, HAP1, SDMA in-cell western, HAP1 MTAP-intact; read-out: MTAP HAP1 intact IC50. The gist of the method:
(§1)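 MTAP-null vs endogenous-MTAP HAP1 isogenic cells; in-cell western SDMA readout; IC50 per line.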

Test [5] concerns HAP1 MTAP-deleted cell line. Briefly: SDMA in-cell western assay, HAP1 MTAP-deleted. It counts as cell-based. The note with it: for IC50: Homo sapiens, HAP1, SDMA in-cell western, HAP1 MTAP-deleted, read-out: HAP1 MTAP deleted IC50; for MTAP intact/deleted ratio: IC50 ratio HAP1 MTAP-intact vs HAP1 MTAP-deleted, SDMA in-cell western. The gist of the method: as §1
In test [6] the test system is HAP1 MTAP-deleted cell line. Briefly: Viability assay, MTAP-deleted cell line. The note with it: Homo sapiens, HAP1, viability assay, MTAP-deleted cell line; read-out: HAP1 MTAP deleted viability. It counts as cell-based. The source says:
Table 1 additionally indicates IC50 values in a viability assay for the MTAP-deleted cell line (column 10), indicating the effect of treatment with compound on cell survival.

SMILES strings stand for the structures.

T1 sequence (O14744 whole entry): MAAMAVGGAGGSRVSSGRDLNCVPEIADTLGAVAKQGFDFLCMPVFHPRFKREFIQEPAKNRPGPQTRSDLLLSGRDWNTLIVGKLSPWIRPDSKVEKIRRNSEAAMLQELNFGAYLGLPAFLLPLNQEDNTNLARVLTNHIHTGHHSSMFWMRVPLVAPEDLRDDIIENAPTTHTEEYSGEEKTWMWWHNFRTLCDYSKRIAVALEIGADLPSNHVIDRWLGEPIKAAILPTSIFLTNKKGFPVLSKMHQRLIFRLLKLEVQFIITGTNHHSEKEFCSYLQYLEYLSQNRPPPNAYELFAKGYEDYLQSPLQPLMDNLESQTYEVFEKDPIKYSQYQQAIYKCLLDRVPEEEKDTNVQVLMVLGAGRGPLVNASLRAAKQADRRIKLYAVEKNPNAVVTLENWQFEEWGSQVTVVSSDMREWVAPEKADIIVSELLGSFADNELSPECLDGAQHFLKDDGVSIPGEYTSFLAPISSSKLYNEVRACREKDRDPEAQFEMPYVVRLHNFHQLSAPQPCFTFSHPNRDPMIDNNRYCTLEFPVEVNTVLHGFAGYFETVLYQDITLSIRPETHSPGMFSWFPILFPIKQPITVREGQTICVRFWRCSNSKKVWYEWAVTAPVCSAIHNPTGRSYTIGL
T1 sequence (Q9BQA1 whole entry partner): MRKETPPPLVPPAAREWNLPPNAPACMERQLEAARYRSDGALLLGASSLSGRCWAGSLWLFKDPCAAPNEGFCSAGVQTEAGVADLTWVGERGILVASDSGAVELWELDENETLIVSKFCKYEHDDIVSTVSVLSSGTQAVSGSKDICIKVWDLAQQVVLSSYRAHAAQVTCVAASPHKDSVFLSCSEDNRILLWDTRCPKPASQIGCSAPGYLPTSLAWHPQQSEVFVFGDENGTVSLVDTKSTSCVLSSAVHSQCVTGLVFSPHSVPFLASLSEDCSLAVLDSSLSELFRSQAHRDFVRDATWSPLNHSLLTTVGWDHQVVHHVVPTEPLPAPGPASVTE

In the case of `Cc1cc(NC(=O)C(=O)N2C[C@@H](C)CC[C@@H]2c2ccc3sc([C@H]4CCN(C)C(C)(C)C4)nc3c2)cnc1C` (racemic) [Compound 1113, N-(5,6-dimethyl-3-pyridyl)-2-oxo-2-[(2R,5S)-5-methyl-2-[2-[(4S)-1,2,2-trimethyl-4-piperidyl]-1,3-benzothiazol-5-yl]-1-piperidyl]acetamide], the IC50 on PRMT5 [1] is < 50 nM; on PRMT5 [2], < 50 nM; at PRMT5 [3], < 50 nM; in test [4], 100 to 1000 nM; in test [5] it was < 100 nM; in test [6], < 1000 nM. Moreover, in test [5], the MTAP intact/deleted ratio result is recorded as “A (an IC50 ratio greater than or equal to 10 fold)”.
As for `COc1ncc(NC(=O)C(=O)N2C[C@@H](C)CC[C@@H]2c2ccc3nn(C4CCN(C)CC4)cc3c2)cc1C(N)=O` (racemic) [Compound 1115, 2-Methoxy-5-[[2-oxo-2-[rac-(2R,5S)-5-methyl-2-[2-(1-methyl-4-piperidyl)indazol-5-yl]-1-piperidyl]acetyl]amino]pyridine-3-carboxamide], the IC50 on PRMT5 [1] was < 50 nM; at PRMT5 [2] it was < 50 nM; at PRMT5 [3], < 50 nM; in test [4], 100 to 1000 nM; in test [5], < 100 nM; in test [6] it was < 1000 nM. In addition, the MTAP intact/deleted ratio entry in test [5] was “A (an IC50 ratio greater than or equal to 10 fold)”.
Take `COc1ncc(NC(=O)C(=O)N2C[C@@H](C)CC[C@@H]2c2ccc3sc([C@@H]4CCN(C)C[C@H]4C)nc3c2)cc1C(N)=O` (racemic) [Compound 1127, 2-methoxy-5-[[2-oxo-2-[rac-(2R,5S)-5-methyl-2-[2-[rac-(3S,4R)-1,3-dimethyl-4-piperidyl]-1,3-benzothiazol-5-yl]-1-piperidyl]acetyl]amino]pyridine-3-carboxamide]: the IC50 at PRMT5 [1] is < 50 nM; on PRMT5 [2], < 50 nM; on PRMT5 [3], < 50 nM; in test [4], < 100 nM; in test [5] it was < 100 nM; in test [6], < 1000 nM. Further, the MTAP intact/deleted ratio result in test [5] was “A (an IC50 ratio greater than or equal to 10 fold)”.
`CCc1cc(NC(=O)C(=O)N2CC(C)CCC2c2ccc3sc(C4CCN(C)CC4C)nc3c2)cnc1N` (racemic) [Compound 1131, N-(6-amino-5-ethyl-3-pyridyl)-2-oxo-2-[rac-(2R,5S)-5-methyl-2-[2-[rac-(3R,4R)-1,3-dimethyl-4-piperidyl]-1,3-benzothiazol-5-yl]-1-piperidyl]acetamide]: the IC50 at PRMT5 [1] was < 50 nM; on PRMT5 [2] it was < 50 nM; at PRMT5 [3], < 50 nM; in test [4], < 100 nM; in test [5] it was < 100 nM; in test [6], < 1000 nM. The MTAP intact/deleted ratio result in test [5] is given as “B (an IC50 ratio greater than or equal to 3 fold but lower than 10 fold)”.
As for `CCc1cc(NC(=O)C(=O)N2C[C@@H](C)[C@@H](OC)C[C@@H]2c2cccc(OCCN(C)C)c2)cnc1N` (racemic) [Compound 1139, N-(6-amino-5-ethyl-3-pyridyl)-2-oxo-2-[rac-(2R,4S,5R)-2-[3-[2-(dimethylamino)ethoxy]phenyl]-4-methoxy-5-methyl-1-piperidyl]acetamide], the IC50 on PRMT5 [1] is 50 to 500 nM; on PRMT5 [2], 50 to 500 nM; on PRMT5 [3], 50 to 500 nM; in test [4] it was < 100 nM; in test [5], < 100 nM; in test [6], < 1000 nM. Moreover, the MTAP intact/deleted ratio result in test [5] was “B (an IC50 ratio greater than or equal to 3 fold but lower than 10 fold)”.

Values taken from patent US11999727B2 (Tango Therapeutics, Inc., priority 2020, dated 2024).
